Each compound was assayed against T1, Androgen Receptor protein in human LnCaP cells (Homo sapiens, UniProt P10275, T878A) (assay: Androgen Receptor Degradation Assay (Nano-Glo HiBiT, LnCaP cells)). Settings: 18 h, HiBiT-tagged AR LnCaP cells, 18 h incubation, fitted curve asymptote maximum of degradation, read-out: mean asymptote max.
T1 construct: the AR gene was modified, using CRISPR/Cas9 editing, so the expressed AR protein included an 11 amino acid HiBiT tag; endogenous in cells; host or cells: clonal LnCaP derived cell line, endogenous AR gene edited by CRISPR/Cas9
T1 sequence (P10275 1-920 T878A): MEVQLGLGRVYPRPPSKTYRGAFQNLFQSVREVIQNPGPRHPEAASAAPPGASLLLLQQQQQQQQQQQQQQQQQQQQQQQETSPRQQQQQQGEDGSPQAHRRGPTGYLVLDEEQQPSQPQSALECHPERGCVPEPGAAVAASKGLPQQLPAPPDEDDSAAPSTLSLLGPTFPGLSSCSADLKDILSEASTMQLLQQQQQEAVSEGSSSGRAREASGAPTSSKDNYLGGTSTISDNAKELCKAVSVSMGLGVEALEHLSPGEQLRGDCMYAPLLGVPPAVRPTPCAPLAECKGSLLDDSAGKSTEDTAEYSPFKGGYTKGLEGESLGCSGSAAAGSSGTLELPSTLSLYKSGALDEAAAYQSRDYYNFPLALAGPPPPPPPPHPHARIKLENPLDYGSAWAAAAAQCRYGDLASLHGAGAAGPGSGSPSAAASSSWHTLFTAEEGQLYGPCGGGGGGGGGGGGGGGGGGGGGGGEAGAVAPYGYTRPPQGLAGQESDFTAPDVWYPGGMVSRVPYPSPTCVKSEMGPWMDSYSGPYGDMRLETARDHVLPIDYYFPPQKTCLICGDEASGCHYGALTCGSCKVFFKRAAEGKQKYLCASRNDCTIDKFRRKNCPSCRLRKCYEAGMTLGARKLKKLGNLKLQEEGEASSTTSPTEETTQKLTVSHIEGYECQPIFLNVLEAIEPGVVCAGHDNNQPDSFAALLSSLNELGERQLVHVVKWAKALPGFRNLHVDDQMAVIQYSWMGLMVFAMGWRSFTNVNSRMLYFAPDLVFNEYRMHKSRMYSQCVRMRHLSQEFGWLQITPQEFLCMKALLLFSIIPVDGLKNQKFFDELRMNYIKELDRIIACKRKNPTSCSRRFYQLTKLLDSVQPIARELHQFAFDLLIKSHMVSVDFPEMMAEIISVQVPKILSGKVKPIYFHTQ
Type: cell-based
Description: Degradation of Androgen Receptor protein in human LnCaP cells treated with PROTACs was quantified using the Nano-Glo® HiBiT Lytic Detection System (Promega) in 384 well assay plate format. A clonal LnCaP derived cell line was first established in which the AR gene was modified, using CRISPR/Cas9 editing, so the expressed AR protein included an 11 amino acid HiBiT tag at its amino-terminus. 10 mM DMSO stock solutions of PROTACs were prepared and diluted across an 11 concentration, 3 fold increment range, and 25 nL dispensed into a white opaque bottomed 384 well assay plate (Thermofisher) using an acoustic ECHO dispenser (Labcyte). Cells were grown in cell culture medium (RPMI 1640 supplemented with 15% FBS, penicillin 50U/mL and streptomycin 50 ug/mL (Thermofisher)). For the assay, cells were detached from flask and resuspended with assay medium (FluoroBrite™ DMEM supplemented with 10% heat inactivated FBS, penicillin 50U/mL and streptomycin 50 ug/mL (Thermofisher)). The cell suspension was centrifuged at 400 g for 5 min and the pellet resuspended in assay medium. 25 μL of cell suspension containing 10,000 cells was dispensed into each well of the assay plate containing a serial dilution of test compounds, which was then incubated for 18 h at 37° C./5% CO2. Control wells were included on each assay plate, with assay medium without cells being the no AR remaining 100% effect control, and cells treated with DMSO vehicle only, without PROTAC, the 0% effect control. 25 μL of Nano-Glo® HiBiT lysis buffer supplemented with LgBiT protein and Nano-Glo® substrate (Promega) was added to each well and the plate shaken at 500 rpm for 10 min at room temperature. The intensity of luminescence was measured using a PHERAstar microplate reader (BMG Labtech) and the % AR protein remaining in each well calculated by normalising the raw luminescence value to the above control wells. Parameters corresponding to the potency and efficacy estimates of the PROTACs were obtained from these normalised luminescence values using software (IDBS ActivityBase). These included the DC50 (concentration at which 50% of protein was degraded in M) and the Dmax (maximal degradation, in %) estimates. Two versions of the DC50, called relative DC50 and absolute DC50, were generated. These are the inflection point of a fitted 4 parameter sigmoidal response curve and the interpolated concentration of PROTAC corresponding to 50% of the protein being degraded, respectively. The corresponding pDC50 is reported as −log10(relative […]). The Dmax parameter was the maximum experimentally observed degradation and the asymptote max parameter the fitted response curve asymptote maximum.
`CC1(C)[C@H](NC(=O)c2ccc(N3CCC(CN4CCC(n5ncc6c(N7CCC(=O)NC7=O)c(F)ccc65)CC4)CC3)c(F)c2)C(C)(C)[C@H]1Oc1ccc(C#N)c2ncccc12` [Example 50, N-((1r,3r)-3-((8-Cyanoquinolin-5-yl)oxy)-2,2,4,4-tetramethylcyclobutyl)-4-(4-((4-(4-(2,4-dioxotetrahydropyrimidin-1(2H)-yl)-5-fluoro-1H-indazol-1-yl)piperidin-1-yl)methyl)piperidin-1-yl)-3-fluorobenzamide] gave a Dmax of at least 50%.
For `CC1(C)[C@H](NC(=O)c2ccc(N3CC[C@@H](CN4CCC(n5ncc6c(N7CCC(=O)NC7=O)cccc65)CC4)C3)c(F)c2)C(C)(C)[C@H]1Oc1ccc(C#N)c2ncccc12` [Example 33, N-((1r,3S)-3-((8-Cyanoquinolin-5-yl)oxy)-2,2,4,4-tetramethylcyclobutyl)-4-((S)-3-((4-(4-(2,4-dioxotetrahydropyrimidin-1(2H)-yl)-1H-indazol-1-yl)piperidin-1-yl)methyl)pyrrolidin-1-yl)-3-fluorobenzamide], the Dmax was at least 50%.
For `CC1(C)[C@H](NC(=O)c2ccc(N3CCC(CN4CC[C@H](n5ncc6c(N7CCC(=O)NC7=O)cccc65)[C@H](F)C4)CC3)c(F)c2)C(C)(C)[C@H]1Oc1ccc(C#N)c2ncccc12` [Example 46, N-((1r,3r)-3-((8-Cyanoquinolin-5-yl)oxy)-2,2,4,4-tetramethylcyclobutyl)-4-(4-(((3R,4S)-4-(4-(2,4-dioxotetrahydropyrimidin-1(2H)-yl)-1H-indazol-1-yl)-3-fluoropiperidin-1-yl)methyl)piperidin-1-yl)-3-fluorobenzamide], the Dmax was at least 50%.
For `CC1(C)[C@H](NC(=O)c2ccc(N3CCC(CN4CCC(n5ncc6c(N7CCC(=O)NC7=O)cccc65)CC4)CC3)c(Cl)c2)C(C)(C)[C@H]1Oc1ccc(C#N)c2ncccc12` [Example 44, 3-Chloro-N-((1r,3r)-3-((8-cyanoquinolin-5-yl)oxy)-2,2,4,4-tetramethylcyclobutyl)-4-(4-((4-(4-(2,4-dioxotetrahydropyrimidin-1(2H)-yl)-1H-indazol-1-yl)piperidin-1-yl)methyl)piperidin-1-yl)benzamide], the Dmax was at least 50%.
For `CC1(C)[C@H](NC(=O)c2ccc(N3CCC(CN4CCC(n5ncc6c(N7CCC(=O)NC7=O)cccc65)CC4)CC3)c(F)c2)C(C)(C)[C@H]1Oc1cnc(C#N)c(Cl)c1` [Example 3, N-((1r,3r)-3-((5-Chloro-6-cyanopyridin-3-yl)oxy)-2,2,4,4-tetramethylcyclobutyl)-4-(4-((4-(4-(2,4-dioxotetrahydropyrimidin-1(2H)-yl)-1H-indazol-1-yl)piperidin-1-yl)methyl)piperidin-1-yl)-3-fluorobenzamide], the Dmax was at least 50%.
With `CC1(C)[C@H](NC(=O)c2ccc(N3CCC(CN4CCC(n5ccc6c(N7CCC(=O)NC7=O)cc(F)cc65)CC4)CC3)c(F)c2)C(C)(C)[C@H]1Oc1ccc(C#N)c2ncccc12` [Example 32, N-((1r,3r)-3-((8-Cyanoquinolin-5-yl)oxy)-2,2,4,4-tetramethylcyclobutyl)-4-(4-((4-(4-(2,4-dioxotetrahydropyrimidin-1(2H)-yl)-6-fluoro-1H-indol-1-yl)piperidin-1-yl)methyl)piperidin-1-yl)-3-fluorobenzamide] the Dmax was at least 50%.
Compound `CC1(C)[C@H](NC(=O)c2ccc(N3CCC(CN4CCC(n5ccc6c(N7CCC(=O)NC7=O)ncnc65)CC4)CC3)c(F)c2)C(C)(C)[C@H]1Oc1ccc(C#N)c2ncccc12` [Example 47, N-((1r,3r)-3-((8-Cyanoquinolin-5-yl)oxy)-2,2,4,4-tetramethylcyclobutyl)-4-(4-((4-(4-(2,4-dioxotetrahydropyrimidin-1(2H)-yl)-7H-pyrrolo[2,3-d]pyrimidin-7-yl)piperidin-1-yl)methyl)piperidin-1-yl)-3-fluorobenzamide] has a Dmax of at least 50%.
